US20210369661A1, “METHODS AND COMPOSITIONS FOR TREATING AND RECOVERING FROM VIRAL INFECTIONS” (IMMUNOFLEX THERAPEUTICS INC., priority 2020, published 2021)
Where “and” joins values, the source holds several entries; their conditions need not be identical. Identical values can stand only once. Entries after “also recorded” stand apart in the source; their conditions may differ.

What was measured:
CB1 receptor = CB1 receptor (Homo sapiens, UniProt P21554); details: read-out: I value at the CB1 receptor; cited from earlier work
Chain of CB1 receptor (P21554 whole entry): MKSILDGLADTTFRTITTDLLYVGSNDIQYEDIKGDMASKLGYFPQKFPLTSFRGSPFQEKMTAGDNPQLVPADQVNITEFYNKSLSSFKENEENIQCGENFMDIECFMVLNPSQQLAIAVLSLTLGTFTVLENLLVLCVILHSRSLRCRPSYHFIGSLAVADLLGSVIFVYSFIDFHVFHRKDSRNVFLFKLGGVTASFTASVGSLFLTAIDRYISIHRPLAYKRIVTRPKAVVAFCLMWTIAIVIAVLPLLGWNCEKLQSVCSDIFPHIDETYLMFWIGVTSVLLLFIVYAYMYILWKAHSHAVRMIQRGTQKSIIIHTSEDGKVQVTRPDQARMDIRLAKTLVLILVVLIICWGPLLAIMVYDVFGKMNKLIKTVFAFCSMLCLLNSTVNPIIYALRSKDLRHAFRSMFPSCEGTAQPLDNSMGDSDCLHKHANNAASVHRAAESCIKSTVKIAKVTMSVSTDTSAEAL

[1] = test system: TCR β chain immune repertoire; assay: T cell receptor β chain immune repertoire diversity index after a controlled dose (iRepertoire sequencing of blood); assay type: in vivo, human; details: for Total number of clonotypes: within 24-48 hr of applied dose
HIV [2] = details: cited from earlier work
[3] = test system: A/H1N1 Singapore 6/86 influenza virus; details: cited from earlier work
HIV [4] = details: 293.27.2, H9, MOLT-4 cells, PBMCs; with or without TNFα / PMA stimulation; cited from earlier work
[5] = test system: influenza A (H5N1) viruses; details: lung epithelial cells; cited from earlier work
[6] = test system: A/swine/HeBei/012/2008 (H9N2) viruses; details: intra-nasal inoculation with or without NAC; cited from earlier work
human PBMCs = details: NAC 1 mM, in vitro; cited from earlier work
[7] = target: monoacylglycerol lipase (MAGL); details: reversible mechanism; read-out: IC50, inhibition of MAGL; cited from earlier work
influenza virus = details: combination with ribavirin vs ribavirin alone; cited from earlier work
CB1 and CB2 = details: cited from earlier work; for Agonism or antagonism against CB1 and CB2: up to 20 μM
[8] = target: T1, fatty acid amide hydrolase (FAAH) (Rattus norvegicus, UniProt P97612); details: rat brain homogenates; read-out: IC50, inhibition of anandamide hydrolysis; cited from earlier work
T1 construct: from tissue; host or cells: rat brain homogenates
T1 sequence (P97612 1-579): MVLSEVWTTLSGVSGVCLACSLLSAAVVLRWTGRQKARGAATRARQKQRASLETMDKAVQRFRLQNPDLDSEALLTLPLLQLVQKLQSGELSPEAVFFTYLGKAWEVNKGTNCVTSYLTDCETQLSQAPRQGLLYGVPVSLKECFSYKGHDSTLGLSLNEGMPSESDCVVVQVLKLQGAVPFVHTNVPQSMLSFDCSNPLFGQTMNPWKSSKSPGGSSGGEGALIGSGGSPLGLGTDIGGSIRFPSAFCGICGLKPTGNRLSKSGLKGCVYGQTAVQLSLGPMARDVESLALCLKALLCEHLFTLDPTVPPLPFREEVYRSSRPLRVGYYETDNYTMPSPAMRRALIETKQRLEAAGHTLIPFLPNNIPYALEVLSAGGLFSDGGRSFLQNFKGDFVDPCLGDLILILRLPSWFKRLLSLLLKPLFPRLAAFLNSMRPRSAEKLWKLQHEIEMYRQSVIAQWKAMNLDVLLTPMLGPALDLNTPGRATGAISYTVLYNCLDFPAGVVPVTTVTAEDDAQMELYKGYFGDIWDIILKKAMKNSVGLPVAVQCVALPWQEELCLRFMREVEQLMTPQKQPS

[9] = test system: influenza virus strain A/PR8(H1N1); details: lethal influenza infection in mice; cited from earlier work
GPR55 = GPR55 (Homo sapiens, UniProt Q9Y2T6); details: cited from earlier work
Chain of GPR55 (Q9Y2T6 whole entry, species assumed): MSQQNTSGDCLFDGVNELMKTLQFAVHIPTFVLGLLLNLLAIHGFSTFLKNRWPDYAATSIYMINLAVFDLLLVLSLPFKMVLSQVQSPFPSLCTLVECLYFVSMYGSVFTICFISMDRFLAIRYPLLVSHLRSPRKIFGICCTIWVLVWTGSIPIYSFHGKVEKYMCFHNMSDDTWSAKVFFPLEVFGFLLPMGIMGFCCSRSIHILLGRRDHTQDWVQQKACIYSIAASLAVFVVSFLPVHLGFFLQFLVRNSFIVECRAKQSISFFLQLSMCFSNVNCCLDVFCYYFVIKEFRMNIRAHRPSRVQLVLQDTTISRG

[10] = Intoxication after topical application of THC salve; details: 10 mg THC, application for three days
[11] = cited from earlier work
HCV infected cells = details: in vitro; cited from earlier work
CB2 receptor = CB2 receptor (Homo sapiens, UniProt P34972); details: nM concentrations; cited from earlier work
Chain of CB2 receptor (P34972 whole entry): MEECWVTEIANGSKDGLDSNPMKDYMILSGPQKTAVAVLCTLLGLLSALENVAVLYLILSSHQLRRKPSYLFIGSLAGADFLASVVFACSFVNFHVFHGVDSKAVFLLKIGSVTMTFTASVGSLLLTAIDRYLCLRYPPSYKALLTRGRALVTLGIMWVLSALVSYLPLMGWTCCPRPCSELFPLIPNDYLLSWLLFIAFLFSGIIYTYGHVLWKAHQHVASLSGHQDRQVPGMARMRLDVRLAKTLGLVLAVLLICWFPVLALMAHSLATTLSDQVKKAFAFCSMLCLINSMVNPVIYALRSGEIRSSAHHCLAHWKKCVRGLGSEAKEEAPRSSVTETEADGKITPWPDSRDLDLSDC

C=C[C@H](O)C#CC#CC/C=C\CCCCCCC [falcarinol]
Ki (CB1 receptor): < 1000 nM

CC(=O)N[C@@H](CS)C(=O)O [NAC, N-acetylcysteine]
Diversity index, Dosed ([1]; NAC single 1200 mg dose (2×600 mg effervescent tablets), 24 hours post dose): 20.0 and 15.9
Diversity index, Fold change ([1]; NAC single 1200 mg dose, 24 hours vs baseline): 1.6 fold and 1.5 fold
Time until immune diversity returns to baseline ([1]; after a single dose): 24 h
Total number of clonotypes [1]: increases
Survival, risk ratio (HIV [2]; 73 subjects with survival data, P=0.0003, median NAC dose 5.3 g/day, median 24 weeks): 0.3 (0.1-0.6)
Viral load (HIV [2]; NAC treatment during the trial, P>0.1): did not result in a significant change
CD4 T cell count (HIV [2]; NAC treatment during the trial, P>0.9): did not result in a significant change
Whole blood GSH and T cell GSH (HIV [2]; NAC treatment for 8 weeks): replenished
Tolerability ([3]; NAC 600 mg twice daily for 6 months): well tolerated
Virus-infected subjects who developed a symptomatic form ([3]; NAC effervescent tablets 600 mg twice daily for 6 months, 79% in the placebo group): 25%
HIV replication (HIV [4]): inhibit HIV replication; also recorded: blocked stimulation of HIV replication
Production of pro-inflammatory molecules [5]: inhibit
Pulmonary inflammation, edema, myeloperoxidase, cells and cytokines in BAL fluid [6]: reduced
Influenza virus specific T lymphocyte proliferation and IFNγ production (human PBMCs): increase

CC(C)=CCC[C@@H](C)[C@@H]1CC[C@]2(C)C3=C(CC[C@@]12C)[C@@]1(C)CC[C@H](O)C(C)(C)[C@@H]1CC3 [euphol]
IC50 [7]: 315 nM

NC(=O)c1ncn([C@@H]2O[C@H](CO)[C@@H](O)[C@H]2O)n1 [ribavirin]
Survival rate (influenza virus): 58%

Cc1nc(N2CCN(C(=O)c3ccco3)CC2)c2c3c(sc2n1)CCCC3 [ML192]
Agonism or antagonism against CB1 and CB2 (CB1 and CB2): no observed agonism or antagonism

O=c1cc(-c2ccccc2)oc2cc(O)ccc12 [7-hydroxyflavone]
IC50 [8]: < 1000 nM

CCOC(=O)C1=C[C@@H](OC(CC)CC)[C@H](NC(C)=O)[C@@H](N)C1 [oseltamivir]
Survival rate [9]: 60%

COc1ccc(S(=O)(=O)N2CCOCC2)cc1NC(=O)c1cc2c(s1)CCCC2 [ML186]
Potency for GPR55 (GPR55): 305 nM
Selectivity against CB1 and CB2 (CB1 and CB2): greater than 100 fold

Cc1ccc(C2(C(=O)N3CCC(n4nc(-c5ccccc5)oc4=O)CC3)CC2)cc1 [ML191]
Agonism or antagonism against CB1 and CB2 (CB1 and CB2): no observed agonism or antagonism

COc1ccc(-c2csc(NC(=O)CSc3nnc4c(C)cc5ccccc5n34)n2)cc1 [ML185]
Potency for GPR55 (GPR55): 658 nM
Selectivity against CB1 and CB2 (CB1 and CB2): greater than 48 fold

Cc1cccc(N2CCN(C(=O)c3cc(S(=O)(=O)N(C)C)ccc3N3CCCC3)CC2)c1C [ML184]
Potency for GPR55 (GPR55): 263 nM
Selectivity against CB1 and CB2 (CB1 and CB2): 57 fold

CCCCCc1cc(O)c2c(c1)OC(C)(C)[C@@H]1CCC(C)=C[C@@H]21 [THC, Δ^9-tetrahydrocannabinol]
Total number of clonotypes [1]: rapidly increases
Intoxication characteristic of THC [10]: without intoxication

CCCCCc1cc(O)c2c(c1)OC(C)(C)[C@@H]1CCC(C)=C[C@@H]21 [Dronabinol]
Amount reaching the blood stream by absorption through the digestive system ([11]; oral): 10-20 % of the administered dose
Duration of peak therapeutic effect ([11]; post administration): 2 to 4 h

Cc1cc(C)c2nc(-c3ccccn3)cc(C(=O)Nc3ccc(S(=O)(=O)Nc4onc(C)c4C)cc3)c2c1 [ML193]
Agonism or antagonism against CB1 and CB2 (CB1 and CB2): no observed agonism or antagonism

C=C(C)[C@@H]1CCC(C)=C[C@H]1c1c(O)cc(CCCCC)cc1O [CBD, cannabidiol]
Cell death of HCV infected cells (HCV infected cells): approximately 85%

C=C1CC/C=C(\C)CC[C@@H]2[C@@H]1CC2(C)C [β-caryophyllene]
Functional activity at the CB2 receptor (CB2 receptor): full agonist
